Results on 24 molecules are retold here after ChEMBL document CHEMBL1124322, “Synthesis and alpha 2-adrenoceptor antagonist activity of some disulfonamidobenzoquinolizines” (J Med Chem, 1989).

In experiment [1] the target is Adrenergic receptor alpha (Rattus norvegicus) (UniProt P15823+P23944+P43140+P22086+P19328+P22909). Nature of the experiment: Ratio of pA2 values at alpha-1 and alpha-2 adrenergic receptors. The format is protein assay.
Experiment [2] addresses T1, Adrenergic receptor alpha-2 (Rattus norvegicus, UniProt P22086+P19328+P22909).
T1 sequence (P22086 whole entry): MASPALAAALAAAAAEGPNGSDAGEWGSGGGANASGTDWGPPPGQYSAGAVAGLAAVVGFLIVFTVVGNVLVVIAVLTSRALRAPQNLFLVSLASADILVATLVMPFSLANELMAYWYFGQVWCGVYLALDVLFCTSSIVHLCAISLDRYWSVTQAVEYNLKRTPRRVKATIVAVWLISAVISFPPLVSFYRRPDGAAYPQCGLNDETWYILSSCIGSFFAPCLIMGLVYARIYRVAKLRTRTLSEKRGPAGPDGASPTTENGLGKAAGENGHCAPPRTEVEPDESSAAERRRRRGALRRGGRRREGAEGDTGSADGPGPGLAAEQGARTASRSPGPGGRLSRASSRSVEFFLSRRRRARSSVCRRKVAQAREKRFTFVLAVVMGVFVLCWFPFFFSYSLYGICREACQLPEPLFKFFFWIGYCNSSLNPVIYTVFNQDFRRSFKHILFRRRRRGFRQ
T1 sequence (P19328 whole entry): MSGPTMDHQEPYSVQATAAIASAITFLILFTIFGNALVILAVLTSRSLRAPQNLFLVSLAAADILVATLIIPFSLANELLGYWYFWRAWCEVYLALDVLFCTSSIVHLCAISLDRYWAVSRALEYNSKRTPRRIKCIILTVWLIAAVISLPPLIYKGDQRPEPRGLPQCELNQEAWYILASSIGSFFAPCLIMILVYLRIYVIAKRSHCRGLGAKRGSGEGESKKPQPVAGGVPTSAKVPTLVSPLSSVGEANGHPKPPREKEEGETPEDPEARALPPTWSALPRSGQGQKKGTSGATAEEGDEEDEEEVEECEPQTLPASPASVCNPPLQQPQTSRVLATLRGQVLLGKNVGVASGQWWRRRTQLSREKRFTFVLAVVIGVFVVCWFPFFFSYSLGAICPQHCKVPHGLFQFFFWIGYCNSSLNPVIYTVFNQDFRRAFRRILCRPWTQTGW
T1 sequence (P22909 whole entry): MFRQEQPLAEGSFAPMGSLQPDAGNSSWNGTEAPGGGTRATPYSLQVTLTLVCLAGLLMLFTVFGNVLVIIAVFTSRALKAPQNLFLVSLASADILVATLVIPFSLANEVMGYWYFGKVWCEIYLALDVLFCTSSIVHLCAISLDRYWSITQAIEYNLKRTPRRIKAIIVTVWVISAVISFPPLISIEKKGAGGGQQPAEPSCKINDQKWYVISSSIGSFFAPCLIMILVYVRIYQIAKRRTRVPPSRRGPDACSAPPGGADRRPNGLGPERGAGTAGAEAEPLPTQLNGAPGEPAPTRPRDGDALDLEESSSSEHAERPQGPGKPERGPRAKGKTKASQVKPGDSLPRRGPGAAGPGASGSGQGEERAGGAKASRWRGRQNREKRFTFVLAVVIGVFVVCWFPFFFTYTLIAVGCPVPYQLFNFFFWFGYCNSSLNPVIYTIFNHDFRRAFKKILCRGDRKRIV
The experiment in a line: Antagonism of rat alpha-2 adrenergic receptor from rat vas deferens. The format is functional.

Experiment [3] deals with T2, Adrenergic receptor alpha-1 (Rattus norvegicus, UniProt P15823+P23944+P43140).
T2 sequence (P15823 whole entry): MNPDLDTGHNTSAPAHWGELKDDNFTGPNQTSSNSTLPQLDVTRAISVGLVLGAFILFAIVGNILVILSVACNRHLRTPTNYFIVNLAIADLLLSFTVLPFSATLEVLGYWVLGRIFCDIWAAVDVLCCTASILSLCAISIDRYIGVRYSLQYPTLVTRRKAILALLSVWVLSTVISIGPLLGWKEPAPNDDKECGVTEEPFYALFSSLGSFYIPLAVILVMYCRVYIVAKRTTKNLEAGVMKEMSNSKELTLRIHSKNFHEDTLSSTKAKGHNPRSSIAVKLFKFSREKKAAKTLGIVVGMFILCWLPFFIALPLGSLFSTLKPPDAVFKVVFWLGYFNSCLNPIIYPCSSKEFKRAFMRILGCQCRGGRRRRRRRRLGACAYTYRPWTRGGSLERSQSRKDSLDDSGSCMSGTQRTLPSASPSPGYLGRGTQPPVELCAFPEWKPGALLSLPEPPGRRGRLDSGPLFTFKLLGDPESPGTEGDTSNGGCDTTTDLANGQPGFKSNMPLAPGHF
T2 sequence (P23944 whole entry): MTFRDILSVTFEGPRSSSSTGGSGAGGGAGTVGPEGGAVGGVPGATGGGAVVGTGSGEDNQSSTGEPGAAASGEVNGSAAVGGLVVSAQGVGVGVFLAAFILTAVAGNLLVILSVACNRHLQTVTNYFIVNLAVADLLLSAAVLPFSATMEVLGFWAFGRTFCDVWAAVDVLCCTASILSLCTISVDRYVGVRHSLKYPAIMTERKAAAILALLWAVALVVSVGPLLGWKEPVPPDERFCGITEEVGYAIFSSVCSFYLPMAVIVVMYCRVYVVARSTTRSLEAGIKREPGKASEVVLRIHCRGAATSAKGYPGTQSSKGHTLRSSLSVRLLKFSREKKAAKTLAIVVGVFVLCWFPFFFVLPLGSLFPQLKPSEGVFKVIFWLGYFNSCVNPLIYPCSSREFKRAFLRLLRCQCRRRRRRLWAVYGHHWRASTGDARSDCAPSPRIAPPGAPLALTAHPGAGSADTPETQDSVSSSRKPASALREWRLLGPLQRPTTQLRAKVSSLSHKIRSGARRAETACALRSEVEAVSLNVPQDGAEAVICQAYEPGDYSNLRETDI
T2 sequence (P43140 whole entry): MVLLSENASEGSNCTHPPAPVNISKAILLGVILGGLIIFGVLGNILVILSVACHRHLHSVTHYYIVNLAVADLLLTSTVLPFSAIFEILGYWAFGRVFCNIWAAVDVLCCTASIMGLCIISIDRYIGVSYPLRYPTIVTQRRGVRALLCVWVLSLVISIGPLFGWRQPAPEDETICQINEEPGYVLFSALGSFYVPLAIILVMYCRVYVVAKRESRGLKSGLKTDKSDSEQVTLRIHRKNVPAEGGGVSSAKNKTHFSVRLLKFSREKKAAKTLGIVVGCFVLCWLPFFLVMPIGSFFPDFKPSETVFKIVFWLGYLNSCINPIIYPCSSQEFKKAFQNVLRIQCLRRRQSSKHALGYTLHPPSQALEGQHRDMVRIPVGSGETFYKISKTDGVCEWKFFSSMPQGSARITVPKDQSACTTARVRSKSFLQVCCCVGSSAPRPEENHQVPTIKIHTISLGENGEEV
Nature of the experiment: Antagonist activity against alpha-1 adrenergic receptor of rat anococcygeus muscle. The format is functional.

Experiment [4] deals with Adrenergic receptor alpha (Rattus norvegicus). The experiment in a line: Selectivity ratio towards alpha-2 and alpha1 expressed as antilog(alpha-2pA2-alpha-1pA2).
In experiment [5] the target is T2, Adrenergic receptor alpha-1. Nature of the experiment: Antagonist activity against Alpha-1 adrenergic receptor of rat anococcygeus muscle. The format is functional.
Experiment [6] deals with T1, Adrenergic receptor alpha-2. The experiment in a line: Antagonist activity against alpha-2 adrenergic receptor of rat vas deferens. The class given is functional, tissue-based.

For `CCCS(=O)(=O)N(C)[C@@H]1CCN2CCc3ccccc3[C@@H]2C1`, the Ratio in experiment [1] came to 55.
In the case of `CS(=O)(=O)NCCCCN([C@@H]1CCN2CCc3ccccc3[C@@H]2C1)S(C)(=O)=O`, the pA2 in experiment [2] was found to be 5.66.
Turning to `CCS(=O)(=O)NCCN([C@@H]1CCN2CCc3ccccc3[C@@H]2C1)S(C)(=O)=O`, the pA2 was 5.65 in experiment [3] and 7.73 in experiment [2]. Also, the Ratio in experiment [1] is 120.
Consider `CCCS(=O)(=O)NCCN([C@@H]1CCN2CCc3ccccc3[C@@H]2C1)S(C)(=O)=O`, for which the pA2 was determined as 5.7 in experiment [3] and 6.7 in experiment [2]. In addition, the Ratio in experiment [1] turned out to be 10.
`CS(=O)(=O)N(CCNS(=O)(=O)C(F)(F)F)[C@@H]1CCN2CCc3ccccc3[C@@H]2C1`: the pA2 in experiment [2] came to 6.4.
`CCS(=O)(=O)NCCN([C@@H]1CCN2CCc3ccccc3[C@@H]2C1)S(=O)(=O)CC`: the pA2 in experiment [3] is given as 5.54; in experiment [2], 8.27. In addition, in experiment [1], the Ratio stood at 540.
On the same counts, the results for `COc1ccc(S(=O)(=O)N(CCNS(C)(=O)=O)[C@@H]2CCN3CCc4ccccc4[C@@H]3C2)cc1` are 6.1, 8.1 and 100.
Taken in the same sequence, the figures for `Cc1ccc(S(=O)(=O)N(CCNS(C)(=O)=O)[C@@H]2CCN3CCc4ccccc4[C@@H]3C2)cc1` were 5.8, 8.4 and 400.
As to `CS(=O)(=O)N(CCNS(=O)(=O)CCl)[C@@H]1CCN2CCc3ccccc3[C@@H]2C1`, in experiment [4], the Ratio was determined as 79. Moreover, the pA2 turned out to be 8.1 in experiment [2] and 6.2 in experiment [5].
Taken in the same sequence, the figures for `O=S(=O)(CCl)NCCN([C@@H]1CCN2CCc3ccccc3[C@@H]2C1)S(=O)(=O)CCl` were 47, 8 and 6.33.
Take `CS(=O)(=O)NCCN([C@@H]1CCN2CCc3ccccc3[C@@H]2C1)S(=O)(=O)c1ccccc1`: the pA2 in experiment [3] is 6.16; in experiment [2], 8.12. For the same molecule, the Ratio in experiment [1] turned out to be 91.
Taken in the same sequence, the figures for `CS(=O)(=O)NCCCN([C@@H]1CCN2CCc3ccccc3[C@@H]2C1)S(C)(=O)=O` were 5.7, 5.7 and 1.
In the case of `CCS(=O)(=O)NCCN([C@@H]1CCN2CCc3ccccc3[C@@H]2C1)S(=O)(=O)c1ccc(C)cc1`, the pA2 in experiment [3] amounted to 6.6; in experiment [2], 7.62.
Take `CS(=O)(=O)NCCN([C@@H]1CCN2CCc3ccccc3[C@@H]2C1)S(=O)(=O)c1ccc(Cl)cc1`: in experiment [6], the pA2 was 8.04.
Take `CCS(=O)(=O)N(CCNS(C)(=O)=O)[C@@H]1CCN2CCc3ccccc3[C@@H]2C1`: the values for the pA2 in experiment [3] and in experiment [2] were 5.65 and 8.34, respectively. Moreover, in experiment [1], the Ratio was 490.
On the same counts, the results for `CS(=O)(=O)NCCN([C@@H]1CCN2CCc3ccccc3[C@@H]2C1)S(=O)(=O)c1ccc(F)cc1` are 5.7, 7.7 and 100.
For `CS(=O)(=O)NCCN([C@@H]1CCN2CCc3ccccc3[C@@H]2C1)S(C)(=O)=O`, the pA2 is 5.32 in experiment [3] and 7.93 in experiment [2]. In addition, in experiment [1], the Ratio came out at 410.
Taken in the same sequence, the figures for `CCCS(=O)(=O)N(CCNS(C)(=O)=O)[C@@H]1CCN2CCc3ccccc3[C@@H]2C1` were 5.8, 8.29 and 310.
`CCCS(=O)(=O)N(CCNS(=O)(=O)CC)[C@@H]1CCN2CCc3ccccc3[C@@H]2C1` displayed a pA2 in experiment [2] of 8.1.
The same measure, in the same setting: under `CC(C)(CN([C@@H]1CCN2CCc3ccccc3[C@@H]2C1)S(C)(=O)=O)NS(C)(=O)=O` stands 6.14.
`CS(=O)(=O)NCCN([C@@H]1CCN2CCc3ccccc3[C@@H]2C1)S(=O)(=O)c1cccc([N+](=O)[O-])c1`: the results for the pA2 in experiment [3] and in experiment [2] were 6.7 and 7.69, respectively. In experiment [1], the Ratio was determined as 10.
Turning to `Cc1cccc(S(=O)(=O)N(CCNS(C)(=O)=O)[C@@H]2CCN3CCc4ccccc4[C@@H]3C2)c1`, the values for the pA2 in experiment [3] and in experiment [2] were 6.4 and 8, respectively. For the same molecule, the Ratio in experiment [1] worked out at 40.
Taken in the same sequence, the figures for `CN(CCN([C@@H]1CCN2CCc3ccccc3[C@@H]2C1)S(C)(=O)=O)S(C)(=O)=O` were 5.5, 6.03 and 3.
On the same counts, the results for `CS(=O)(=O)N(CCNS(=O)(=O)c1ccccc1)[C@@H]1CCN2CCc3ccccc3[C@@H]2C1` are 5.9, 5.9 and 1.

For orientation: pA2 means a measure of antagonist potency on a negative log scale. The low end stands for lower antagonist potency, the high end for higher antagonist potency.
